Test results: patent publication US12485110B2, “Use of ergothioneine for extending lifespan or improving healthspan” (NANJING NUTRABUILDING BIO-TECH CO., LTD., priority 2022, dated 2025)
“Also recorded” adds a separate entry of the source.

How the values were obtained:
C. elegans [1] = experiment: Lifespan assay (Automated Lifespan Machine); assay type: in vivo; settings: for Maximum lifespan: 95th percentile of lifespans; for Median lifespan: N2 wild type, day 0 = day 1 of adulthood; for Mean lifespan: area under survival curve; for Lifespan / survival relative to vehicle control (in words): 5.0 mM (highest treatment group)
Excerpt: N2 (Bristol) wild type strain has been used in this application.
To prevent chemical modification or metabolism of the test article by the food bacteria, worms were fed on a lawn of UV-killed bacteria (UV-i bacteria). An overnight culture of E. coli strain WP-2 was pelleted, washed, filtered, and irradiated. A suspension of UV-i bacteria was spotted on NGM agar containing Streptomycin to inhibit the growth of contaminating bacteria. The quantity and distribution of food bacteria were calibrated to ensure adequate access to food for the duration of assay while maintaining visibility of the worms.
The ALM used herein is based on the Caenorhabditis elegans lifespan machine published by Stroustrup et. al (Stroustrup, N. et al. The Caenorhabditis elegans Lifespan Machine. Nat Methods 10, 665-670 (2013)), with proprietary modifications to improve temperature stability and image acquisition. The scanner unit consists of a modified EPSON V850 and images are processed and analyzed using the ALM software (see id.). The machine time-of-death calls are trained and validated using the “storyboarding” feature of the ALM software.
The lifespan assay was designed and performed according to published and validated methods (Amrit, F. R. G., Ratnappan, R., Keith, S. A. & Ghazi, A. The C. elegans lifespan assay toolkit. Methods 68, 465-475 (2014)), using a modified version of the Automated Lifespan Machine (Stroustrup, N. et al. The Caenorhabditis elegans Lifespan Machine. Nat Methods 10, 665-670 (2013)). Worms were age synchronized by bleaching and eggs were plated directly onto NGM agar seeded with UV-i bacteria (Day 1, hatch). On Day 3, when the worms had reached the late L4 stage, they were transferred to dishes containing 100 μM 5-Fluorodeoxyuridine (FUdR) to suppress progeny. On day 5, the worms were washed off the dishes, and 30-50 worms were plated on each scanner dish. Plates were immobilized inverted on the bed of an Automated Lifespan Machine which scanned two images per hour of the plates continuously for the next 40 days.
Time of death calls exported from the ALM software was analyzed and plotted using the Lifelines software package developed by Cam Davidson-Pilon et. al (Lifelines Version: v0.25.9). Additional analysis performed using the OASIS2 analysis software (Seong Kyu Han et. al. OASIS 2: online application for survival analysis 2 with features for the analysis of maximal lifespan and healthspan in aging research. Oncotarget. 7:56147-56152. (2016)).
The lifespan assay was initiated by expanding all replicate groups to more than 1000 worms, then synchronizing by bleaching and allowing larval worms to hatch and arrest. To eliminate the effect of bacterial metabolism and growth on lifespan of C. elegans (wild type, and not over express β-amyloid peptide) worms, synchronized worms were only exposed to dead food bacteria. To suppress progeny, worms were transferred to media containing 5-Fluorodeoxyuridine (FUdR) within 54-60 hours post-plating. Worms were inspected 24 and 48 hours after this transfer to confirm infertility. Finally, the worms were inspected for general health and morphology before transferring to scanner plates. The scanner plates were incubated for an additional 2 days and inspected again before loading onto scanners.
To obtain high-resolution lifespan data and eliminate confounding factors such as worm handling and operator bias, lifespan data was collected using an Automated Lifespan Machine (ALM) (Stroustrup, N. et al. The Caenorhabditis elegans Lifespan Machine. Nat Methods 10, 665-670 (2013)). Three biological replicates, derived from synchronizing three independently maintained lines of N2 worms, were distributed across instruments. Images of the worms were then collected for the next 35 days with no interruption or manipulations. Some plates were excluded after quality checks, but plate number and worm count for all replicates exceeded the threshold for statistical significance (Table 1, row 1).

C. elegans [2] = experiment: Acute toxicity assay; assay type: in vivo
Experimental: Making culturing plates with ergothioneine: C. elegans is usually grown in the laboratory using E. coli as a food source. Nematode Growth Medium (NGM) plates have been prepared by aseptically pouring NGM agar into petri plates. Ergothioneine was dissolved in water to make a working solution of 0.5 M and then mixed with E. coli liquid culture before seeding on NGM agar plates. The seeding spots were dried slowly, allowing ergothioneine to diffuse into the food bacteria and the agar for at least 24 hours before worms are introduced. The indicated ergothioneine dosages (0, 640 nM, 3.2 μM, 16 μM, 80 μM, 400 μM, 2 mM, and 10 mM) are based on the total volume of the plates.
The acute toxicity assay tests toxicity in adult worms by simulating the actual conditions of the lifespan assay. […] Second, over time worm deaths are scored to rule out doses that will likely have a negative impact on lifespan despite lacking immediate toxicity. […] Adult worms were monitored in the days immediately following exposure for early lethality or any other obvious defects.
Worms were treated with either vehicle control or ergothioneine at doses spanning a range from […] to 10 mM on media identical to what would be used in the lifespan experiment. […] Worms were examined for immediate toxic effects and then scored intermittently for survival until the start of lifespan experiment in the next step (see example 2 below). […]

## C[N+](C)(C)[C@@H](Cc1c[nH]c(=S)[nH]1)C(=O)[O-] [Ergo, Ergothioneine]
C. elegans [1]; 0.1 mM
  Age in days at 25% mortality: 17.97 days
  Age in days at 50% mortality: 24.16 days
  Age in days at 75% mortality: 28.15 days
  Age in days at 90% mortality: 30.83 days
  Age in days at 100% mortality: 39 days
  Maximum lifespan: 33.2 days
  Median lifespan: 24.2 days
  Mean lifespan: 23.4 days
C. elegans [1]; 0.1 mM, 0.5 mM and 5.0 mM
  Dose dependence of lifespan (Kaplan-Meier, FIG. 4A): dose-dependent increase in lifespan
C. elegans [1]; 0.5 mM
  Age in days at 25% mortality: 18.05 days
  Age in days at 50% mortality: 24.22 days
  Age in days at 75% mortality: 28.37 days
  Age in days at 90% mortality: 30.84 days
  Age in days at 100% mortality: 37.26 days
  Maximum lifespan: 33.3 days
  Median lifespan: 24.2 days
  Mean lifespan: 23.5 days
C. elegans [1]; 5.0 mM
  Age in days at 25% mortality: 21.04 days
  Age in days at 50% mortality: 25.92 days
  Age in days at 75% mortality: 29.73 days
  Age in days at 90% mortality: 32.05 days
  Age in days at 100% mortality: 38.81 days
  Maximum lifespan: 34.6 days
  Median lifespan: 25.9 days
  Mean lifespan: 25.3 days
C. elegans [1]
  Lifespan / survival relative to vehicle control (in words): higher survival than the vehicle control at all timepoints
C. elegans [1]; listed as Ergothioneine
  Lifespan / survival relative to vehicle control (in words): significant positive increase in lifespan; also recorded: statistically significant shift in survival
C. elegans [1]; 5.0 mM vs 0.1 mM Resveratrol, log-rank tests
  Lifespan increase compared with Resveratrol positive control: similarly to, but slightly less than the Resveratrol positive control
C. elegans [2]; 2 mM, upper end of the remaining doses
  Early lethality (FIG. 3): did not cause early lethality
C. elegans [2]; 10 mM, day 10 post treatment, L4 stage worms, 25° C.
  Early lethality (FIG. 3): showed an early lethality
